Laboratory results from patent US9695155B2, “Herbicidal substituted pyrimidinyloxy benzene compounds” (E. I. DU PONT DE NEMOURS AND COMPANY, priority 2013, dated 2017).

Assays:
field bindweed = assay: Test E postemergence; assay type: in vivo, Convolvulus arvensis
Summary of the method: (§1)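 Compound in a non-phytotoxic solvent mixture with surfactant was applied preemergence to seeds in silt loam soil, or postemergence to plants 2 to 18 cm tall grown in peat-based potting medium. Plants were kept in a greenhouse for 14 to 21 days, then rated visually against untreated controls on a 0 (no effect) to 100 (complete control) scale.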

hairy beggarticks = assay: Test E postemergence; assay type: in vivo, Bidens pilosa
Summary of the method: as §1

ducksalad = assay: Test C flooded paddy test; assay type: in vivo, Heteranthera limosa; conditions: Flood, scale 0 to 100 (0 no effect, 100 complete control), 13 to 15 days
Summary of the method: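 Pots were flooded to 3 cm above the soil surface at treatment, compound applied directly to the paddy water, and that depth held throughout. Plants were kept in a greenhouse for 13 to 15 days, then visually rated against untreated controls.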

wild poinsettia = assay: Test E postemergence; assay type: in vivo, Euphorbia heterophylla
Summary of the method: as §1

waterhemp [1] = assay: Test E postemergence; assay type: in vivo, Amaranthus rudis
Summary of the method: as §1

Brazilian crabgrass [2] = assay: Test E postemergence; assay type: in vivo, Digitaria horizontalis
Summary of the method: as §1

sandbur = assay: Test E postemergence; assay type: in vivo, Cenchrus echinatus
Summary of the method: as §1

palmer pigweed [3] = assay: Test E postemergence; assay type: in vivo, Amaranthus palmeri
Summary of the method: as §1

fall panicum = assay: Test E postemergence; assay type: in vivo, Panicum dichotomiflorum
Summary of the method: as §1

corn = assay: Test E postemergence; assay type: in vivo, Zea mays
Summary of the method: as §1

kochia = assay: Test E preemergence; assay type: in vivo, Kochia scoparia; conditions: for Kochia plant response rating: scale 0 to 100 (0 no effect, 100 complete control); for Plant response rating, Kochia: scale 0 to 100, 0 no effect, 100 complete control
Excerpt: (§2) Seeds of plant species selected from corn (Zea mays), soybean (Glycine max), velvetleaf (Abutilon theophrasti), lambsquarters (Chenopodium album), wild poinsettia (Euphorbia heterophylla), palmer pigweed (Amaranthus palmeri), waterhemp (common waterhemp, Amaranthus rudis), surinam grass (Brachiaria decumbens), large (Lg) crabgrass (Digitaria sanguinalis), Brazilian crabgrass (Digitaria horizontalis), fall panicum (Panicum dichotomiflorum), giant foxtail (Setaria faberii), green foxtail (Setaria viridis), goosegrass (Eleusine indica), johnsongrass (Sorghum halepense), ragweed (common ragweed, Ambrosia elatior), barnyardgrass (Echinochloa crus-galli), sandbur (southern sandbur, Cenchrus echinatus), arrowleaf sida (Sida rhombifolia), Italian ryegrass (Lolium multiflorum), dayflower (Virginia (VA) dayflower, Commelina virginica), field bindweed (Convolvulus arvensis), morningglory (Ipomoea coccinea), nightshade (eastern black nightshade, Solanum ptycanthum), kochia (Kochia scoparia), yellow nutsedge (Cyperus esculentus), cocklebur (common cocklebur, Xanthium strumarium), smartweed (ladysthumb smartweed, and hairy beggarticks (Bidens pilosa), were planted into a silt loam soil and treated preemergence with test chemicals formulated in a non-phytotoxic solvent mixture which included a surfactant.
(§3) At the same time, plants from these crop and weed species and also horseweed (Canada horseweed, Conyza canadensis), waterhemp_RES1, (ALS & Triazine resistant common waterhemp, Amaranthus rudis), and waterhemp_RES2, (ALS & HPPD resistant common waterhemp, Amaranthus rudis) were planted in pots containing Redi-Earth® planting medium (Scotts Company, 14111 Scottslawn Road, Marysville, Ohio 43041) comprising spaghnum peat moss, vermiculite, wetting agent and starter nutrients were treated with postemergence applications of test chemicals formulated in the same manner. Plants ranged in height from 2 to 18 cm for postemergence treatments (1- to 4-leaf stage). Treated plants and controls were maintained in a greenhouse for 14 to 21 days, after which time all species were compared to controls and visually evaluated. Plant response ratings, summarized in Table E, are based on a scale of 0 to 100 where 0 is no effect and 100 is complete control. A dash (-) response means no test result.

large (Lg) crabgrass = assay: Test E preemergence; assay type: in vivo, Digitaria sanguinalis; conditions: for Crabgrass, Large plant response rating: scale 0 to 100 (0 no effect, 100 complete control); for Plant response rating, Crabgrass, Large: scale 0 to 100, 0 no effect, 100 complete control
Excerpt: as §2, §3

morningglory = assay: Test E preemergence; assay type: in vivo, Ipomoea coccinea; conditions: for Morningglory plant response rating: scale 0 to 100 (0 no effect, 100 complete control); for Plant response rating, Morningglory: scale 0 to 100, 0 no effect, 100 complete control
Excerpt: as §2, §3

waterhemp [4] = assay: Test E preemergence; assay type: in vivo, Amaranthus rudis; conditions: for Waterhemp plant response rating: scale 0 to 100 (0 no effect, 100 complete control); for Plant response rating, Waterhemp: scale 0 to 100, 0 no effect, 100 complete control
Excerpt: as §2, §3

lambsquarters = assay: Test E preemergence; assay type: in vivo, Chenopodium album; conditions: for Lambsquarters plant response rating: scale 0 to 100 (0 no effect, 100 complete control); for Plant response rating, Lambsquarters: scale 0 to 100, 0 no effect, 100 complete control
Excerpt: as §2, §3

Italian ryegrass = assay: Test E preemergence; assay type: in vivo, Lolium multiflorum; conditions: for Ryegrass, Italian plant response rating: scale 0 to 100 (0 no effect, 100 complete control); for Plant response rating, Ryegrass, Italian: scale 0 to 100, 0 no effect, 100 complete control
Excerpt: as §2, §3

Brazilian crabgrass [5] = assay: Test E preemergence; assay type: in vivo, Digitaria horizontalis; conditions: for Crabgrass, Brazil plant response rating: scale 0 to 100 (0 no effect, 100 complete control); for Plant response rating, Crabgrass, Brazil: scale 0 to 100, 0 no effect, 100 complete control
Excerpt: as §2, §3

palmer pigweed [6] = assay: Test E preemergence; assay type: in vivo, Amaranthus palmeri; conditions: for Pigweed, Palmer plant response rating: scale 0 to 100 (0 no effect, 100 complete control); for Plant response rating, Pigweed, Palmer: scale 0 to 100, 0 no effect, 100 complete control
Excerpt: as §2, §3

[7] = Postemergence, 31 g ai/ha, scale 0 to 100
[8] = Postemergence, 62 g ai/ha, scale 0 to 100
[9] = Postemergence, 125 g ai/ha, scale 0 to 100
[10] = postemergence, 8 g ai/ha, scale 0 to 100, 0 no effect, 100 complete control
[11] = postemergence, 16 g ai/ha, scale 0 to 100, 0 no effect, 100 complete control

FC(F)(F)c1cnn(-c2c(Br)cccc2Oc2ncc(Cl)cn2)c1 [Compound 191]
5: Plant response rating, Panicum, Fall (fall panicum; [7])
90: Plant response rating, Waterhemp (waterhemp [1]; [7]) | Plant response rating, Waterhemp (waterhemp [1]; [8])
75: Plant response rating, Ducksalad (ducksalad; 125 g ai/ha) | Plant response rating, Pigweed, Palmer (palmer pigweed [3]; [7]) | Plant response rating, Pigweed, Palmer (palmer pigweed [3]; [8])
60: Plant response rating, Poinsettia, Wild (wild poinsettia; [9]) | Plant response rating, Waterhemp (waterhemp [1]; [10])
20: Plant response rating, Field Bindweed (field bindweed; [10]) | Plant response rating, Beggarticks (hairy beggarticks; [11]) | Plant response rating, Poinsettia, Wild (wild poinsettia; [10]) | Plant response rating, Crabgrass, Brazil (Brazilian crabgrass [2]; [9]) | Plant response rating, Pigweed, Palmer (palmer pigweed [3]; [10]) | Plant response rating, Panicum, Fall (fall panicum; [9])
95: Plant response rating, Waterhemp (waterhemp [1]; [9])
10: Plant response rating, Beggarticks (hairy beggarticks; [10]) | Plant response rating, Crabgrass, Brazil (Brazilian crabgrass [2]; [7]) | Plant response rating, Crabgrass, Brazil (Brazilian crabgrass [2]; [8]) | Plant response rating, Crabgrass, Brazil (Brazilian crabgrass [2]; [10]) | Plant response rating, Crabgrass, Brazil (Brazilian crabgrass [2]; [11]) | Plant response rating, Sandbur (sandbur; [9]) | Plant response rating, Panicum, Fall (fall panicum; [8]) | Plant response rating, Corn (corn; [7]) | Plant response rating, Corn (corn; [8])
40: Plant response rating, Field Bindweed (field bindweed; [8]) | Plant response rating, Field Bindweed (field bindweed; [11]) | Plant response rating, Beggarticks (hairy beggarticks; [7]) | Plant response rating, Poinsettia, Wild (wild poinsettia; [11]) | Plant response rating, Pigweed, Palmer (palmer pigweed [3]; [11])
80: Plant response rating, Ducksalad (ducksalad; 250 g ai/ha)
85: Plant response rating, Pigweed, Palmer (palmer pigweed [3]; [9])
70: Plant response rating, Waterhemp (waterhemp [1]; [11])
0: Plant response rating, Sandbur (sandbur; [7]) | Plant response rating, Sandbur (sandbur; [8]) | Plant response rating, Sandbur (sandbur; [10]) | Plant response rating, Sandbur (sandbur; [11]) | Plant response rating, Panicum, Fall (fall panicum; [10]) | Plant response rating, Panicum, Fall (fall panicum; [11]) | Plant response rating, Corn (corn; [10]) | Plant response rating, Corn (corn; [11])
15: Plant response rating, Corn (corn; [9])
50: Plant response rating, Field Bindweed (field bindweed; [7]) | Plant response rating, Field Bindweed (field bindweed; [9]) | Plant response rating, Beggarticks (hairy beggarticks; [8]) | Plant response rating, Beggarticks (hairy beggarticks; [9]) | Plant response rating, Ducksalad (ducksalad; 62 g ai/ha) | Plant response rating, Poinsettia, Wild (wild poinsettia; [7]) | Plant response rating, Poinsettia, Wild (wild poinsettia; [8])
30: Plant response rating, Ducksalad (ducksalad; 31 g ai/ha)

Cc1cnc(Oc2cccc(C#N)c2-n2cc(C#N)cn2)nc1 [Compound 90]
80: Plant response rating, Crabgrass, Brazil (Brazilian crabgrass [5]; 125 g ai/ha)
75: Crabgrass, Large plant response rating (large (Lg) crabgrass; 62 g ai/ha) | Lambsquarters plant response rating (lambsquarters; 31 g ai/ha)
5: Lambsquarters plant response rating (lambsquarters; 16 g ai/ha)
20: Morningglory plant response rating (morningglory; 62 g ai/ha) | Waterhemp plant response rating (waterhemp [4]; 62 g ai/ha) | Crabgrass, Brazil plant response rating (Brazilian crabgrass [5]; 31 g ai/ha)
0: Kochia plant response rating (kochia; 16 g ai/ha) | Morningglory plant response rating (morningglory; 16 g ai/ha) | Morningglory plant response rating (morningglory; 31 g ai/ha) | Waterhemp plant response rating (waterhemp [4]; 16 g ai/ha) | Waterhemp plant response rating (waterhemp [4]; 31 g ai/ha) | Ryegrass, Italian plant response rating (Italian ryegrass; 16 g ai/ha) | Ryegrass, Italian plant response rating (Italian ryegrass; 31 g ai/ha) | Ryegrass, Italian plant response rating (Italian ryegrass; 62 g ai/ha) | Plant response rating, Ryegrass, Italian (Italian ryegrass; 125 g ai/ha) | Crabgrass, Brazil plant response rating (Brazilian crabgrass [5]; 16 g ai/ha) | Pigweed, Palmer plant response rating (palmer pigweed [6]; 16 g ai/ha) | Pigweed, Palmer plant response rating (palmer pigweed [6]; 31 g ai/ha) | Pigweed, Palmer plant response rating (palmer pigweed [6]; 62 g ai/ha)
65: Plant response rating, Pigweed, Palmer (palmer pigweed [6]; 125 g ai/ha)
100: Kochia plant response rating (kochia; 62 g ai/ha) | Plant response rating, Kochia (kochia; 125 g ai/ha) | Plant response rating, Waterhemp (waterhemp [4]; 125 g ai/ha) | Plant response rating, Lambsquarters (lambsquarters; 125 g ai/ha)
35: Plant response rating, Morningglory (morningglory; 125 g ai/ha)
50: Kochia plant response rating (kochia; 31 g ai/ha) | Lambsquarters plant response rating (lambsquarters; 62 g ai/ha) | Crabgrass, Brazil plant response rating (Brazilian crabgrass [5]; 62 g ai/ha)
30: Crabgrass, Large plant response rating (large (Lg) crabgrass; 16 g ai/ha)
98: Plant response rating, Crabgrass, Large (large (Lg) crabgrass; 125 g ai/ha)
40: Crabgrass, Large plant response rating (large (Lg) crabgrass; 31 g ai/ha)

Cc1cnc(Oc2cccc(C#N)c2-n2cc(C(F)(F)F)cn2)nc1 [Compound 180]
0: Kochia plant response rating (kochia; 31 g ai/ha) | Morningglory plant response rating (morningglory; 31 g ai/ha) | Ryegrass, Italian plant response rating (Italian ryegrass; 31 g ai/ha) | Ryegrass, Italian plant response rating (Italian ryegrass; 62 g ai/ha) | Pigweed, Palmer plant response rating (palmer pigweed [6]; 31 g ai/ha) | Pigweed, Palmer plant response rating (palmer pigweed [6]; 62 g ai/ha)
98: Crabgrass, Large plant response rating (large (Lg) crabgrass; 62 g ai/ha) | Waterhemp plant response rating (waterhemp [4]; 31 g ai/ha) | Waterhemp plant response rating (waterhemp [4]; 62 g ai/ha) | Lambsquarters plant response rating (lambsquarters; 31 g ai/ha)
20: Kochia plant response rating (kochia; 62 g ai/ha)
30: Plant response rating, Ryegrass, Italian (Italian ryegrass; 125 g ai/ha)
70: Plant response rating, Ryegrass, Italian (Italian ryegrass; 250 g ai/ha)
15: Morningglory plant response rating (morningglory; 62 g ai/ha)
90: Crabgrass, Large plant response rating (large (Lg) crabgrass; 31 g ai/ha) | Crabgrass, Brazil plant response rating (Brazilian crabgrass [5]; 31 g ai/ha) | Plant response rating, Pigweed, Palmer (palmer pigweed [6]; 250 g ai/ha)
100: Plant response rating, Kochia (kochia; 125 g ai/ha) | Plant response rating, Kochia (kochia; 250 g ai/ha) | Plant response rating, Crabgrass, Large (large (Lg) crabgrass; 125 g ai/ha) | Plant response rating, Crabgrass, Large (large (Lg) crabgrass; 250 g ai/ha) | Plant response rating, Morningglory (morningglory; 250 g ai/ha) | Plant response rating, Waterhemp (waterhemp [4]; 125 g ai/ha) | Plant response rating, Waterhemp (waterhemp [4]; 250 g ai/ha) | Lambsquarters plant response rating (lambsquarters; 62 g ai/ha) | Plant response rating, Lambsquarters (lambsquarters; 125 g ai/ha) | Plant response rating, Lambsquarters (lambsquarters; 250 g ai/ha) | Crabgrass, Brazil plant response rating (Brazilian crabgrass [5]; 62 g ai/ha) | Plant response rating, Crabgrass, Brazil (Brazilian crabgrass [5]; 125 g ai/ha) | Plant response rating, Crabgrass, Brazil (Brazilian crabgrass [5]; 250 g ai/ha)
75: Plant response rating, Pigweed, Palmer (palmer pigweed [6]; 125 g ai/ha)
60: Plant response rating, Morningglory (morningglory; 125 g ai/ha)
